The values that follow are results of earlier work, collected in patent US20220175741A1, “COMPOSITIONS, DEVICES AND METHODS FOR TREATING AUTISM” (priority 2017, published 2022).

In data set [1] the test system is child's autistic symptoms. The note with it: one child; Rodakis, Microbial Ecology in Health & Disease 2015.
The test system of the next data set is children with Autism. Conditions: within a few weeks of treatment; Sandler et al, Journal of Child Neurology 2000.

The structures appear in SMILES notation.

For the compound `CC1(C)S[C@@H]2[C@H](NC(=O)[C@H](N)c3ccc(O)cc3)C(=O)N2[C@H]1C(=O)O` [amoxycillin], in data set [1], the autistic symptoms entry was “reversed almost completely”.

For `CN[C@H](CC(C)C)C(=O)N[C@H]1C(=O)N[C@@H](CC(N)=O)C(=O)N[C@H]2C(=O)N[C@H]3C(=O)N[C@H](C(=O)N[C@H](C(=O)O)c4cc(O)cc(O)c4-c4cc3ccc4O)[C@H](O)c3ccc(c(Cl)c3)Oc3cc2cc(c3O[C@@H]2O[C@H](CO)[C@@H](O)[C@H](O)[C@H]2O[C@H]2C[C@](C)(N)[C@H](O)[C@H](C)O2)Oc2ccc(cc2Cl)[C@H]1O` [vancomycin], the “behavioural changes of autistic children” value in the data set with children with Autism is “reversal of behavioural changes and progress to normality”.
